From patent publication US20260191838A1, “COMBINATIONS COMPRISING A MENIN-MLL INHIBITOR AND A BCL-2 INHIBITOR” (JANSSEN PHARMACEUTICA NV, priority 2022, published 2026)

Test system: OCI-AML3 cells
Test: In vitro proliferation (Cell Titer Glo), Compound 51 with decitabine and venetoclax, OCI-AML3
Assay type: cell-based, human
Set-up: Effect size (BIGL, HSA null model): scale not given here
Method: 3a) In Vitro Proliferation—Menin-MLL Inhibitor in Combination with a DNA Hypomethylating Agent (Decitabine) and a BCL2 Inhibitor (Venetoclax)
The effect of Compound 51 in combination with decitabine and venetoclax was determined in proliferation assays.
AML cell lines MOLM-13, OCI-AML3 and MV4-11 were purchased from DSMZ. MOLM-13 were grown in RPMI medium supplemented with 10% Fetal Bovine Serum (FBS) and 1% penicillin/streptomycin. MV4-11 cells were grown in IMDM medium supplemented with 10% FBS and 1% penicillin/streptomycin. OCI-AML3 cells were cultured in 80-90% alpha-MEM (without ribo- and deoxyribonucleosides)+10-20% FBS. All cell lines were cultured at 37° C. in 5% CO2 atmosphere.
AML cell lines (10×10^3 cells/well) were seeded in 96-well plates and grown for 6 days in serum (10%)-containing medium in the presence or absence of inhibitors at the indicated concentrations. Proliferation was analyzed by means of a Cell Titer Glo assay using the CellTiter 96 Aqueous One Solution Cell Proliferation Assay (Promega, Madison, WI, USA), according to the manufacturer's instructions. Data are mean with standard deviation from two to four independent experiments in technical triplicates.
R-based Biochemically Intuitive Generalized Loewe (BIGL) model implemented with a highest single agent (HSA) null model. Specifically, the BIGL methodology was applied to calculate drug-drug interactions (Van der Borght, K., Tourny, A., Bagdziunas, R. et al. BIGL: Biochemically Intuitive Generalized Loewe null model for prediction of the expected combined effect compatible with partial agonism and antagonism. Sci Rep 7, 17935 (2017); Thas, O., Tourny, A., Verbist, B., Hawinkel, S., Nazarov, M., Mutambanengwe, K., & Bijnens, L. Statistical detection of synergy: new methods and a comparative study. Pharmaceutical Statistics (2021)).
Synergy matrix results of the BIGL analysis of the cell line data with HSA as mean model calculated on the basis of the cellular metabolic activity using Cell Titer-Glo assay. Bootstrap confidence intervals are indicated. Effect sizes and their confidence intervals are shown. […] No significant average effect if zero is included in the interval.

CC(=O)N1CCC(CN2CC[C@@H](Cc3cn(-c4ccc(F)cc4C(=O)N(C)C(C)C)c4cncc(C)c34)C2)CC1 [Compound 51]
Effect size (BIGL, HSA null model) (Compound 51 0.001 μM, Decitabine 0.0015 μM, Venetoclax 0.0001 μM): −0.03 | Effect size (BIGL, HSA null model) (Compound 51 0.001 μM, Decitabine 0.015 μM, Venetoclax 0.001 μM): −0.1 | Effect size (BIGL, HSA null model) (Compound 51 0.001 μM, Decitabine 0.15 μM, Venetoclax 0.002 μM): −0.05 | Effect size (BIGL, HSA null model) (Compound 51 0.001 μM, Decitabine 1.5 μM, Venetoclax 0.02 μM): 0 | Effect size (BIGL, HSA null model) (Compound 51 0.001 μM, Decitabine 3 μM, Venetoclax 0.2 μM): 0 | Effect size (BIGL, HSA null model) (Compound 51 0.01 μM, Decitabine 0.0015 μM, Venetoclax 0.0001 μM): −0.01 | Effect size (BIGL, HSA null model) (Compound 51 0.01 μM, Decitabine 0.015 μM, Venetoclax 0.001 μM): −0.31 | Effect size (BIGL, HSA null model) (Compound 51 0.01 μM, Decitabine 0.15 μM, Venetoclax 0.002 μM): −0.06 | Effect size (BIGL, HSA null model) (Compound 51 0.01 μM, Decitabine 1.5 μM, Venetoclax 0.02 μM): −0.01 | Effect size (BIGL, HSA null model) (Compound 51 0.01 μM, Decitabine 3 μM, Venetoclax 0.2 μM): 0 | Effect size (BIGL, HSA null model) (Compound 51 0.05 μM, Decitabine 0.0015 μM, Venetoclax 0.0001 μM): 0.02 | Effect size (BIGL, HSA null model) (Compound 51 0.05 μM, Decitabine 0.015 μM, Venetoclax 0.001 μM): 0.01 | Effect size (BIGL, HSA null model) (Compound 51 0.05 μM, Decitabine 0.15 μM, Venetoclax 0.002 μM): −0.09 | Effect size (BIGL, HSA null model) (Compound 51 0.05 μM, Decitabine 1.5 μM, Venetoclax 0.02 μM): −0.01 | Effect size (BIGL, HSA null model) (Compound 51 0.05 μM, Decitabine 3 μM, Venetoclax 0.2 μM): 0 | Effect size (BIGL, HSA null model) (Compound 51 0.1 μM, Decitabine 0.0015 μM, Venetoclax 0.0001 μM): 0.03 | Effect size (BIGL, HSA null model) (Compound 51 0.1 μM, Decitabine 0.015 μM, Venetoclax 0.001 μM): 0.09 | Effect size (BIGL, HSA null model) (Compound 51 0.1 μM, Decitabine 0.15 μM, Venetoclax 0.002 μM): −0.06 | Effect size (BIGL, HSA null model) (Compound 51 0.1 μM, Decitabine 1.5 μM, Venetoclax 0.02 μM): −0.01 | Effect size (BIGL, HSA null model) (Compound 51 0.1 μM, Decitabine 3 μM, Venetoclax 0.2 μM): 0 | Effect size (BIGL, HSA null model) (Compound 51 0.5 μM, Decitabine 0.0015 μM, Venetoclax 0.0001 μM): 0.03 | Effect size (BIGL, HSA null model) (Compound 51 0.5 μM, Decitabine 0.015 μM, Venetoclax 0.001 μM): 0.12 | Effect size (BIGL, HSA null model) (Compound 51 0.5 μM, Decitabine 0.15 μM, Venetoclax 0.002 μM): 0.01 | Effect size (BIGL, HSA null model) (Compound 51 0.5 μM, Decitabine 1.5 μM, Venetoclax 0.02 μM): −0.01 | Effect size (BIGL, HSA null model) (Compound 51 0.5 μM, Decitabine 3 μM, Venetoclax 0.2 μM): 0 | Effect size (BIGL, HSA null model) (Compound 51 1 μM, Decitabine 0.0015 μM, Venetoclax 0.0001 μM): 0.02 | Effect size (BIGL, HSA null model) (Compound 51 1 μM, Decitabine 0.015 μM, Venetoclax 0.001 μM): 0.11 | Effect size (BIGL, HSA null model) (Compound 51 1 μM, Decitabine 0.15 μM, Venetoclax 0.002 μM): 0 | Effect size (BIGL, HSA null model) (Compound 51 1 μM, Decitabine 1.5 μM, Venetoclax 0.02 μM): 0 | Effect size (BIGL, HSA null model) (Compound 51 1 μM, Decitabine 3 μM, Venetoclax 0.2 μM): 0.03 | combination effect on proliferation (in words) (Compound 51 with Decitabine in the presence of Venetoclax, OCI-AML3 (NPM1c), 6-day CellTiter-Glo): not antagonistically cytotoxic
